Data taken from patent US9890432B2, “PRDM14 and FAM19A4, molecular diagnostic markers for HPV-induced invasive cancers and their high-grade precursor lesions” (SELF-SCREEN B.V., priority 2013, dated 2018).
Entries after “also recorded” stand apart in the source; their conditions may differ.

Test system: PRDM14 mRNA expression in SiHa cervical cancer cells
Assay: PRDM14 mRNA expression in SiHa cells after treatment with a DNA methylation inhibitor
Assay type: cell-based, human
Conditions: DAC at 0.2 μM and 5 μM, controls PBS and ethanol
Experimental: Treatment of SiHa cervical cancer cells was performed with the methylation inhibitor 2′-deoxy-5′azacytidine (5′-aza or DAC) at 0.2 μM and 5 μM concentration. Other treatments were PBS and ethanol (EtOH). All treatments were in duplicate. Controls are human reference RNA and a -RT control (without reverse transcriptase added to the cDNA reaction mixture).

Structure (SMILES): Nc1ncn([C@H]2C[C@H](O)[C@@H](CO)O2)c(=O)n1 [DAC, 5-aza-2 deoxycytidine]
- PRDM14 mRNA expression: upregulated; also recorded: upregulation
